# In US20240066045A1, “SEMICARBAZONE-BASED SAPONIN CONJUGATE” (priority 2020, published 2024):
# Read-outs that look alike come from different tables or passages of the source.
# Experiments:
# [1] = test system: A431 cells; assay: Cell killing assay (MTS): saponin titrated on fixed non-effective concentration of targeted toxin (endosomal escape enhancing activity); format: cell-based
# Method: (§1) Cell viability was determined by an MTS-assay, performed according to the manufacturer's instruction (CellTiter 96® AQueous One Solution Cell Proliferation Assay, Promega). Briefly, the MTS solution was diluted 20× in DMEM without phenol red (PAN-Biotech GmbH) supplemented with 10% FBS (PAN-Biotech GmbH). The cells were washed once with 200 μL PBS per well, after which 100 μL diluted MTS solution was added per well. The plate was incubated for approximately 20-30 minutes at 37° C. Subsequently, the optical density at 492 nm was measured on a Thermo Scientific Multiskan FC plate reader (Thermo Scientific). For quantification the background signal of ‘medium only’ wells was subtracted from all other wells, before the ratio of untreated/treated cells was calculated, by dividing the background corrected signal of untreated wells over the background corrected signal of the treated wells.
# [2] = test system: HeLa cells; assay: as above; format: cell-based; details: for IC50: read-out: IC50 nM (Activity; + 5 pM EGFdianthin), HeLa cells, + 5 pM EGFdianthin
# Method: as §1
# [3] = test system: A431 cells; assay: Cell toxicity (MTS), saponin alone; format: cell-based
# Method: as §1
# [4] = test system: HeLa cells; assay: Cell toxicity (MTS), saponin alone; format: cell-based
# Method: as §1
# [5] = test system: human red blood cells (RBC); assay: Haemolysis assay; format: cell-based; details: fresh human red blood cells
# Method: Red blood cells (RBCs) were isolated from a buffy coat using a Ficoll gradient. The obtained RBC pellet (˜4-5 ml) was washed 2× with 50 ml DPBS (without Ca^2+/Mg^2+, PAN-Biotech GmbH). Cells were pelleted by centrifugation for 10 min, 800×g at RT. RBC were counted and resuspended at 500.000.000 c/ml in DPBS (without Ca^2+/Mg^2+), based on total cell count. SO1861-linker dilutions were prepared in DPBS (with Ca^2+/Mg^2+, PAN-Biotech GmbH), at 1.11× final strength. For positive lysis control a 0.02% Triton-X100 solution was prepared in DPBS^+/+. Of all compound solutions 135 μl was dispensed/well in a 96 well V-bottom plate. To this 15 μl RBC suspension was added and mixed shortly (10 sec—600 rpm). The plate was incubated 30 min at RT, with gentle agitation. Afterwards the plate was spun for 10 min at 800×g to pellet the RBC and 100-120 μl supernatant was transferred to a standard 96 wp. Subsequently, the OD at 405 nm was measured on a Thermo Scientific Multiskan FC plate reader (Thermo Scientific). For quantification the background signal of ‘DPBS^+/+ only’ wells was subtracted from all other wells before the percentage of hemolysis was calculated in comparison to 0.02% Triton-X100, by dividing the background corrected signal of treated wells over the background corrected signal of the 0.02% Triton-X100 wells (×100).
# [6] = CMC determination (ANS fluorescence); format: physicochemical
# Method: The critical micellar concentration (CMC) of saponins derived from Saponaria Officinalis (SO) was determined by the method of DeVendittis et al. (www.sciencedirect.com/science/article/pii/0003269781900063, doi.org/10.1016/0003-2697(81)90006-3, Analytical Biochemistry, Volume 115, Issue 2, August 1981, Pages 278-286) as follows: The emission spectrum of 8-Anilinonaphthalene-1-sulfonic acid (ANS) in either purified water (MQ) or PBS (Dulbecco's PBS+/+) was determined at dry weight concentrations of saponins ranging from 1 to 1400 μM to cover the range below and above the CMC. Above the CMC, the fluorescence yield of ANS increases and the wavelength of maximum emission decreases due to portioning of the fluorescent dye into micelles. Fluorescence yields were recorded on a Fluoroskan Ascent FL (Thermo Scientific) at an excitation wavelength of 355 nm, and an emission wavelength of 460 nm. 6 μg at a concentration of 75.86 μM of ANS were used per sample and measurement.
# [7] = test system: apoB RNA in primary human hepatocytes; assay: apoB RNA expression analysis (qRT-PCR) after 72 hr treatment; format: cell-based; details: read-out: IC50 apoB RNA levels
# Method: RNA from cells was isolated using TRI Reagent® Solution (Thermo Scientific) according to the manufacturer's instruction. Conversion into cDNA was performed using iScript™ cDNA Synthesis Kit (BioRad) using standard protocols. ApoB expression levels and levels of specific hepatocyte housekeeping genes were determined using quantitative real-time PCR assays (qRT-PCR) using iTaq™ Universal SYBR® Green Supermix (BioRad) and the Light Cycler 480 (Roche Diagnostics, Rotkreuz, Switzerland) with specific DNA primers, listed in Table A4. Analysis was done by the ΔCt method to determine ApoB expression relative to 2 hepatocyte-specific housekeeping control mRNAs. Each analysis reaction was performed in triplicate.
# Covalent binding of the saponin to the GalNAc/oligonucleotide conjugate via a semicarbazone bond thus results in increased efficacy when relative apoB RNA levels are considered and compared with levels measured in cells which were contacted with a conjugate comprising saponin linked via a hydrazone bond to the GalNAc/oligonucleotide conjugate. Without wishing to be bound by any theory, improved efficacy of the release of free saponin from the conjugate, when the conjugate is transferred into the endosome, is at the basis for the improved potency of the oligonucleotide, as obtained with the conjugate comprising saponin bound via semicarbazone. […]
# [8] = test system: apoB RNA in liver tissue; assay: In vivo efficacy: apoB RNA in liver tissue (qRT-PCR); design: species or system C57BL/6J mice; details: for reduction of liver apoB RNA compared to vehicle: study A
# Method: (§2) In Vivo Tolerability and Efficacy of Trivalent GalNAc-Conjugates in a C57BL/6J Model • Dose administration and in-life phase. Per group, 8 C57BL/6J male mice for treatment groups (in study A, 14 mice in vehicle control group), approximately 6-7 weeks at arrival and 8-9 weeks at dosing, were dosed. The compounds, formulated in PBS or PBS alone (vehicle) according to Table A5 and Table A6, were dosed at 5 ml/kg in the tail vain (intravenously, iv), with dose volumes corresponding to the individual bodyweights. Where applicable, trivalent (GalNAc)3-SO1861 (EMCH) was co-administered at 5 ml/kg in the tail vain (iv) right after the trivalent GalNAc-ApoB conjugate. Animals were weighed weekly and clinical observations were performed 2-3 times daily within the first 48 hrs, and at least once daily thereafter until study end. • Sampling of serum, liver, and kidney tissue. […] At the relevant inter-study post-dose timepoints, 3 animals per timepoint per treatment group (6 animals in the vehicle control group in study A) were sacrificed to collect terminal bleeds and collect relevant organs, such as liver and kidney tissues for further analyses. at end of study, the remaining 2 animals (4 in the control group in study A) per group were sacrificed. One half of the liver and one kidney was frozen and used for tissue RNA analysis.
# The mRNA was isolated from frozen liver tissue using TRizol® Reagent (Thermo Scientific) according to the manufacturer's instruction. Conversion into cDNA was performed using iScript™ cDNA Synthesis Kit (BioRad). ApoB expression levels and levels of specific liver housekeeping genes were determined using quantitative real-time PCR assays (qRT-PCR) using iTaq™ Universal SYBR® Green Supermix (BioRad) and the Light Cycler 480 (Roche Diagnostics, Rotkreuz, Switzerland) with specific DNA primers, listed in Table A4 (study A) and Table A7 (study B), respectively. Analysis was done by the ΔCt method to determine ApoB expression relative to 2 liver-specific housekeeping control mRNAs. Each analysis reaction was performed in triplicate.
# [9] = test system: apoB protein in serum; assay: In vivo efficacy: serum apoB protein (ELISA); design: species or system C57BL/6J mice; details: study B; 2 mg/kg; 72 hrs post-dose
# Method: as §2, with “[…] […]” for “The compounds, formulated in PBS or PBS alone (vehicle) according to Table A5 and Table A6, were dosed at 5 ml/kg in the tail vain (intravenously, iv), with dose volumes corresponding to the individual bodyweights. Where applicable, trivalent (GalNAc)3-SO1861 (EMCH) was co-administered at 5 ml/kg in the tail vain (iv) right after the trivalent GalNAc-ApoB conjugate.”
# ApoB protein levels in mouse serum was determined using an ApoB ELISA (ab230932, Abcam, Cambridge, UK), according to the manufacturer's instruction.
# [10] = test system: serum LDL-cholesterol (LDL-C); assay: In vivo efficacy: serum LDL-cholesterol; design: species or system C57BL/6J mice
# Method: as §2
# LDL-cholesterol was measured in mouse serum, using an LDL-cholesterol specific two-step AU480 assay kit, respectively, from Beckman Coulter, with a photometric measurement according to the manufacturer's instructions.
# [11] = In vivo tolerability: clinical observations, body weight, serum ALT; design: species or system C57BL/6J mice; details: study A; doses and dose regimens of Table A5, iv
# Method: In Vivo Tolerability and Efficacy of Trivalent GalNAc-Conjugates in a C57BL/6J Model • Dose administration and in-life phase. Per group, 8 C57BL/6J male mice for treatment groups (in study A, 14 mice in vehicle control group), approximately 6-7 weeks at arrival and 8-9 weeks at dosing, were dosed. The compounds, formulated in PBS or PBS alone (vehicle) according to Table A5 and Table A6, were dosed at 5 ml/kg in the tail vain (intravenously, iv), with dose volumes corresponding to the individual bodyweights. Where applicable, trivalent (GalNAc)3-SO1861 (EMCH) was co-administered at 5 ml/kg in the tail vain (iv) right after the trivalent GalNAc-ApoB conjugate. Animals were weighed weekly and clinical observations were performed 2-3 times daily within the first 48 hrs, and at least once daily thereafter until study end. • Sampling of serum, liver, and kidney tissue. […]
# Serum alanine transaminase (ALT) levels was measured using an AU480 assay kit from Beckman Coulter (photometric measurements), according to the manufacturer's instructions.
# [12] = test system: HSP27 mRNA in A431 cells; assay: HSP27 gene silencing (HSP27 mRNA expression, qPCR); format: cell-based; details: saponin titrated + 50 nM Trastuzumab-HSP27BNA
# From the text: RNA from cells was isolated and analysed according to standard protocols (Biorad).
molecule,measurement,setting,value
CC(=O)OC1C(C)OC(OC2C(C)OC(OC(=O)[C@]34CCC(C)(C)CC3C3=CCC5[C@@]6(C)CC[C@H](OC7OC(C(=O)O)C(O)C(OC8OCC(O)C(O)C8O)C7OC7OC(CO)C(O)C(O)C7O)[C@@](C)(/C=N/NC(=O)CCCCCN7C(=O)C=CC7=O)C6CC[C@@]5(C)[C@]3(C)C[C@H]4O)C(OC3OC(C)C(OC4OCC(O)C(OC5OC(CO)C(O)C(O)C5O)C4O)C(O)C3O)C2O)C(O)C1OC1OCC(O)C(O)C1O (some centres unmarked) [SO1861-EMCH],IC50,"[1]; + 50 pM Trastuzumab-saporin, read-out: IC50 cell killing",2500 nM
same,IC50,"[1]; read-out: IC50 nM (Activity; + 5 pM EGFdianthin), + 5 pM EGFdianthin",3000 nM
same,IC50,[2],4000 nM
same,IC50,[3],> 30000 nM
same,IC50,[4],> 100000 nM
same,IC50,[5],> 500000 nM
CC(=O)O[C@H]1[C@H](O[C@@H]2OC[C@@H](O)[C@H](O)[C@H]2O)[C@@H](O)[C@H](O[C@@H]2[C@H](O)[C@@H](O[C@@H]3O[C@@H](C)[C@H](O[C@@H]4OC[C@@H](O)[C@H](O[C@@H]5O[C@H](CO)[C@@H](O)[C@H](O)[C@H]5O)[C@H]4O)[C@@H](O)[C@H]3O)[C@H](OC(=O)[C@]34CCC(C)(C)C[C@H]3C3=CC[C@@H]5[C@@]6(C)CC[C@H](O[C@@H]7O[C@H](C(=O)O)[C@@H](O)[C@H](O[C@@H]8OC[C@@H](O)[C@H](O)[C@H]8O)[C@H]7O[C@@H]7O[C@H](CO)[C@H](O)[C@H](O)[C@H]7O)[C@@](C)(C=O)[C@@H]6CC[C@@]5(C)[C@]3(C)C[C@H]4O)O[C@@H]2C)O[C@@H]1C [SO1861],IC50,"[1]; Homo sapiens, A-431, read-out: IC50 nM (Activity; + 5 pM EGFdianthin), + 5 pM EGFdianthin",300 nM
same,activity compared with the SO1861 derivatives,"[2]; HeLa and A431, + 5 pM EGFdianthin or 10 pM cetuximab-saporin or 50 pM Trastuzumab-saporin",strongest activity
same,IC50,[2]; Homo sapiens,500 nM
same,IC50,"[3]; Homo sapiens, A-431",2000 nM
same,IC50,[4]; Homo sapiens,9000 nM
same,IC50,[5]; Erythrocyte,10000 nM
same,CMC,[6],120 µM
"5′-GCattggtatTCA-3′ (GCATTGGTATTCA; listed as DNA, chemistry not fully specified) [ApoB #02 BNA]",IC50,"[7]; relative ApoB #02 BNA concentration, no transfection agent (FIG. 19A)",400 nM
same,IC50,[7]; transfection with RNAi-MAX,8 nM
same,reduction of liver apoB RNA compared to vehicle,"[8]; 0.1 mg/kg iv, 24 hrs",not noticeably reduced
same,reduction of liver apoB RNA compared to vehicle,"[8]; 1 mg/kg iv, 24 hrs",~15%
same,reduction of liver apoB RNA compared to vehicle,"[8]; 2 mg/kg iv, 24 hrs",~21%
same,reduction of liver apoB RNA compared to vehicle,"[8]; 2 mg/kg iv, 72 hrs",39%
same,reduction of liver apoB RNA compared to vehicle,"[8]; 2 mg/kg iv, 336 hrs",30%
same,"liver apoB RNA levels, % of vehicle control","[8]; study B, 2 mg/kg, 72 hrs",53%
same,serum apoB protein,[9],57 µg/mL
same,reduction of serum LDL-C compared to vehicle,"[10]; study A, 2 mg/kg, 72 hrs",ca. 50%
same,reduction of serum LDL-C compared to vehicle,"[10]; study A, 2 mg/kg, 336 hrs",ca. 40%
same,serum LDL-C levels compared to vehicle,"[10]; study A, 0.1, 1, or 2 mg/kg, 24 hrs",not noticeably reduced
same,serum LDL-C,"[10]; study B, 2 mg/kg, 72 hrs post-dose",2 mg/dL
same,tolerability (clinical observations),[11],well tolerated
CC(=O)OC1C(C)OC(OC2C(C)OC(OC(=O)[C@]34CCC(C)(C)CC3C3=CCC5[C@@]6(C)CC[C@H](OC7OC(C(=O)O)C(O)C(OC8OCC(O)C(O)C8O)C7OC7OC(CO)C(O)C(O)C7O)[C@@](C)(C=NNC(=O)N7CCN(C(=O)CCCCCN8C(=O)C=CC8=O)CC7)C6CC[C@@]5(C)[C@]3(C)C[C@H]4O)C(OC3OC(C)C(OC4OCC(O)C(OC5OC(CO)C(O)C(O)C5O)C4O)C(O)C3O)C2O)C(O)C1OC1OCC(O)C(O)C1O (some centres unmarked) [SO1861-SC-Mal],IC50,[12],600 nM
same,IC50,[4],> 100000 nM
same,IC50,[5],250000 nM
same,CMC,[6]; listed as SO1861-Semicarbazone Mal,>800 µM
same,CMC,[6]; listed as SO1861-semicarbazone Mal,>800 µM
